Measured values reported in patent US11377423B2, “Inhibitors of histone deacetylase” (The Broad Institute, Inc., priority 2012, dated 2022).
Entries after “also recorded” stand apart in the source; their conditions may differ. Read-outs that look alike come from different tables or passages of the source.

Legend:
HDAC2 = HDAC2 (Homo sapiens (Human), UniProt Q92769); experiment: Tm shift; format: binding
HDAC3 = HDAC3 (Homo sapiens (Human), UniProt O15379); experiment: Caliper HDAC enzymatic endpoint assay, HDAC3; format: biochemical
Experimental: (§1) Substrate A was prepared as 2 mM in DMSO. Its final concentration in the assay for HDACs 1, 2, 3, 6 is 2 μM.
(§2) Below is the HDAC and Substrate concentration used in this assay.

FGF21 = FGF21 mRNA expression in HepG2 cells; format: cell-based, human
Experimental: Compounds of the invention were evaluated for their ability to upregulate FgF21 mRNA expression in HepG2 cells. FgF21 (Fibroblast growth factor 21) is a potent insulin sensitizer and stimulatory signal for fat oxidation. (Li, H. et al. Diabetes, 61, 797, 2012; […]., The American Journal of Clinical Nutrition, 91, […], 2010). The assay protocol was as follows. HepG2 cells were cultured in DMEM and 10% FBS. […] We treated cells with the indicated compounds for two hours, and lysed and extracted mRNA using the Rneasy kit (Qiagen). […] Quantitative PCR was performed using Taqman probes specific for human FGF21 and human actin.

INS-1E cells [1] = experiment: Cytokine-induced beta-cell apoptosis, caspase-3 activity assay; format: cell-based, rat
Experimental: Compounds of the invention were evaluated for their ability to suppress cytokine-induced beta-cell apoptosis and palmitate and/or glucose-induced beta-cell apoptosis by inhibition of HDAC3. Assay protocols were as follows: Cell culture and reagents. […] Recombinant IL-1β, IFN-γ, and TNF-α were purchased from R&D Systems. Palmitate, D-glucose and fatty acids-free low endotoxin BSA were purchased from Sigma. Palmitate was solubilized in 90% ethanol, heated to 60° C. and used 1:100 dilution in media. Caspase-Glo 3/7 was from Promega and 3-(4,5-dimethylthiazol-2-yl)-2,5-diphenyltetrazolium bromide (MTT) was from Calbiochem. Antibodies for HDAC1, HDAC2, HDAC3, pJNK, JNK cleaved caspase-9 and secondary horseradish-peroxidase conjugated goat anti-mouse and anti-rabbit antibodies were from Cell Signaling. Antibody for beta-actin was from Sigma and antibody against CHOP (GADD153) from Abcam. HDAC inhibitors were purchased from Selleck Chemicals or synthesized in-house. Primers were from Integrated DNA Technologies, High Capacity cDNA RT kit and SYBR green master mix were purchased from Applied Biosystems. INS-1E cells were seeded at 5,000 cells/well using a Multidrop Combi (Thermo Labsystems) in white optical 384-well plates (Corning Life Sciences). After overnight incubation, medium was removed and 50 μL RPMI containing the treated compound, 1% FBS and either a combination of cytokines (10 ng/mL IL-1β, 50 ng/mL IFN-γ, 25 ng/mL TNF-α) or 0.5 mM sodium palmitate was added to every well. After two-day treatment, medium was removed and 20 μL Caspase-Glo 3/7 reagent was added. Luminescence was measured after a two-hour incubation using an Envision plate reader (PerkinElmer). […] The rat INS-1E cell line was simultaneously treated for 48 hours with a combination of pro-inflammatory cytokines IL-1β, IFN-γ, and TNF-α, and the indicated test compounds. […] Compound 9, a negative control, had no effect. […] FIGS. 9C and 9D show a dose-response analysis of HDAC inhibition in suppression of cytokine-induced beta-cell apoptosis. […] This could translate to a larger therapeutic window. […]

[2] = Fear conditioning assay in normal animals; format: in vivo; conditions: wild type normal mouse, single dose
From the text: In one aspect, the invention provides methods and compositions for promoting cognitive function and enhancing learning and memory formation in both normal subjects as well as those suffering from memory loss and cognitive function disorders/impairments. […] A normal subject, as used herein, is a subject that has not been diagnosed with a disorder associated with impaired cognitive function. “Cognitive function” refers to mental processes of a subject relating to information gathering and/or processing; the understanding, reasoning, and/or application of information and/or ideas; the abstraction or specification of ideas and/or information; acts of creativity, problem-solving, and possibly intuition; and mental processes such as learning, perception, and/or awareness of ideas and/or information. The mental processes are distinct from those of beliefs, desires, and the like.

HDAC8 = HDAC8 (Homo sapiens (Human), UniProt Q9BY41); experiment: Caliper HDAC enzymatic endpoint assay, HDAC8; format: biochemical; conditions: Table 2C; read-out: HDAC8 IC50 after 0 hr preincubation
Experimental: The Caliper HDAC Assay Buffer (acronym HAB, 1 liter) was prepared as follows:
Substrate B was prepared as 2 mM in 100% DMSO. Its final concentration in the assay for HDACs 4, 5, 7, 8, 9 is 2 μM.
LBH was used as quench inhibitor to stop the reaction at the end point.
IC50 values are in micromolar.

HDAC6 = HDAC6 (Homo sapiens (Human), UniProt Q9UBN7); experiment: Caliper HDAC enzymatic endpoint assay, HDAC6; format: biochemical; conditions: Table 2C; read-out: HDAC6 IC50 after 0 hr preincubation
Experimental: as §1, §2

INS-1E cells [3] = experiment: Insulin assay (glucose-stimulated insulin secretion and insulin content, ELISA); format: cell-based, rat; conditions: 10 μM, palmitate and 25 mM glucose, 24 h
Experimental: INS-1E cells (20,000 cells/well) were seeded in 96-well plates in 100 uL complete medium. After overnight incubation media was removed and cells were exposed to 100 uL medium/well with the indicated concentrations of palmitate, glucose, HDAC inhibitors and/or vehicle. […] Cells were subsequently incubated with KRBH buffer containing 2 mM or 16 mM glucose for 1 hour. Supernatants were collected for measurement of insulin. For measuring insulin content, cells were washed in PBS and lysed using Passive Lysis Buffer. Insulin was measured with a rat insulin ELISA kit (Alpco). Total insulin content was normalized to total protein (Bradford assay). Each condition was assayed in biological duplicates. Specifically, HDAC3 inhibition is shown to preserve the glucose-induced insulin secretory function. […] FIGS. 13A to 13B are a series of bar graphs. […] Glucose-stimulated insulin secretion and total insulin content were assessed by ELISA. Data are presented as fold to CTRL+SEM, n=3-5, ns=not significant, *p<0.05, **p<0.01, ***p<0.001 vs. CTRL, #p<0.05, ##p<0.01, ###p<0.001 vs. respective treatment. ANOVA with Tukey- or Dunnet-corrected test, or Student's t-test (insulin content).

[4] = test system: human megakaryocyte progenitors; experiment: Growth of human megakaryocyte progenitors (surrogate assay for platelet depletion); format: cell-based; conditions: 0.1, 1, 10 and 20 μM, relative to DMSO treated cells
Experimental: Compounds of the invention were evaluated for their effect on the growth of human megakaryocyte progenitors (surrogate assay for platelet depletion). Human CD34+ cells were grown in a collagen-based gel (Megacult-C, Stemcell Technologies). […] 100% indicates no difference in cell viability relative to the DMSO treated cells. […] This is the desired effect.

Chain of HDAC3 (O15379 whole entry): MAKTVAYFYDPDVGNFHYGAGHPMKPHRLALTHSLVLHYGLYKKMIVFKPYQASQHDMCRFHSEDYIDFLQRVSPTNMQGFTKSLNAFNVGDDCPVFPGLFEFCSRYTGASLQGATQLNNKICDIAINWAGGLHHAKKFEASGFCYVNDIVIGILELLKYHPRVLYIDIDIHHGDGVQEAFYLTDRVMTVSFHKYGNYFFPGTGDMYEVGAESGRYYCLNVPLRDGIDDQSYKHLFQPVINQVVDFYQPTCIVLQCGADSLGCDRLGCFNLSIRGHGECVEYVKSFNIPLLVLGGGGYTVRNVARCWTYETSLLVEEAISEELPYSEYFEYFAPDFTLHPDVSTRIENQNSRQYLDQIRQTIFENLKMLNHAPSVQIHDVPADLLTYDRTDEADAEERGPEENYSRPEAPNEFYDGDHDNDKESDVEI
Chain of HDAC3 (Q9Y618 395-489 partner): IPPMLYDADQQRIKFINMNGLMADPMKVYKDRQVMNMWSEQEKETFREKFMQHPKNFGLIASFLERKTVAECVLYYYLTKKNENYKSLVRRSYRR
Chain of HDAC2 (Q92769 whole entry): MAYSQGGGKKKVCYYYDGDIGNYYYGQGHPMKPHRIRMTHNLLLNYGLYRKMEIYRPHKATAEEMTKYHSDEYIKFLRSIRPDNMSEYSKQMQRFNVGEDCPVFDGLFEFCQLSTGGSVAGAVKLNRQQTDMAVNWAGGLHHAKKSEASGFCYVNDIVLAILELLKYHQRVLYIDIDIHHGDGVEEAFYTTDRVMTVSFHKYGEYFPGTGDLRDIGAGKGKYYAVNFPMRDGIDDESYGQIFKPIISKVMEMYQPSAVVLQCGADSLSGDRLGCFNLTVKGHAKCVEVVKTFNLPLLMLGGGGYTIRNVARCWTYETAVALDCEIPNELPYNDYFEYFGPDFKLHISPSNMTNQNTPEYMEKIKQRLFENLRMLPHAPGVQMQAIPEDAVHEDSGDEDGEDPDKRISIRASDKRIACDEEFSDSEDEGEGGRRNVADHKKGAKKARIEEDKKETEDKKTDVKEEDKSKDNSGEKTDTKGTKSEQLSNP
Chain of HDAC6 (Q9UBN7 whole entry): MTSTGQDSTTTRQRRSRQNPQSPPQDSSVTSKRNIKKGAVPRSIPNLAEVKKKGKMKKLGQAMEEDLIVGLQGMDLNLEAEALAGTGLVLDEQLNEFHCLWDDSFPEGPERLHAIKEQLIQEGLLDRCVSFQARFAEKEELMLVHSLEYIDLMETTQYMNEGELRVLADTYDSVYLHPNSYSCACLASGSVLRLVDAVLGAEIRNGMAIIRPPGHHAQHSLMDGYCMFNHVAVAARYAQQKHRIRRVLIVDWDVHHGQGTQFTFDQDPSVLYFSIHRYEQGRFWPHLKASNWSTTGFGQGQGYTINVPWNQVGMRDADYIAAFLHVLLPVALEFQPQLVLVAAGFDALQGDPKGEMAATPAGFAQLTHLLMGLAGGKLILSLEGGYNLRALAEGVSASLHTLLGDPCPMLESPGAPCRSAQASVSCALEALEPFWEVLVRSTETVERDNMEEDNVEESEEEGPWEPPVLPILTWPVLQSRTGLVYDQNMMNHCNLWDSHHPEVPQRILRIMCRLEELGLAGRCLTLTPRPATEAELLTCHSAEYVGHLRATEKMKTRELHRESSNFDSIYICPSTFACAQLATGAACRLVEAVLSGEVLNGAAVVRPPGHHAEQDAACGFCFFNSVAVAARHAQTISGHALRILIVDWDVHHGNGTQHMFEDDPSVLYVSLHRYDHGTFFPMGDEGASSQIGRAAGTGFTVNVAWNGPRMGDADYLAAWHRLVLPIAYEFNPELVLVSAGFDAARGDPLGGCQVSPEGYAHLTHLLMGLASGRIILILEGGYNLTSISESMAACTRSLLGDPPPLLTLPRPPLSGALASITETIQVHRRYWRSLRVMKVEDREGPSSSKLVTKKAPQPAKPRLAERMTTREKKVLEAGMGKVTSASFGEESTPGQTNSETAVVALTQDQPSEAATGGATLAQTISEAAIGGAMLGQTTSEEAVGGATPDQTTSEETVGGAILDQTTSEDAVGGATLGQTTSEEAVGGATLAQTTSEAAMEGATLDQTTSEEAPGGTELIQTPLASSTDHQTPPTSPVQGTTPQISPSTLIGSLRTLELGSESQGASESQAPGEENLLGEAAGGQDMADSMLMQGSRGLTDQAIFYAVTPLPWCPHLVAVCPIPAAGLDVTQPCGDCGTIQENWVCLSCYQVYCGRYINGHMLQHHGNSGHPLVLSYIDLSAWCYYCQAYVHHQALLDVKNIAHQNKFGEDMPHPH
Chain of HDAC8 (Q9BY41 whole entry): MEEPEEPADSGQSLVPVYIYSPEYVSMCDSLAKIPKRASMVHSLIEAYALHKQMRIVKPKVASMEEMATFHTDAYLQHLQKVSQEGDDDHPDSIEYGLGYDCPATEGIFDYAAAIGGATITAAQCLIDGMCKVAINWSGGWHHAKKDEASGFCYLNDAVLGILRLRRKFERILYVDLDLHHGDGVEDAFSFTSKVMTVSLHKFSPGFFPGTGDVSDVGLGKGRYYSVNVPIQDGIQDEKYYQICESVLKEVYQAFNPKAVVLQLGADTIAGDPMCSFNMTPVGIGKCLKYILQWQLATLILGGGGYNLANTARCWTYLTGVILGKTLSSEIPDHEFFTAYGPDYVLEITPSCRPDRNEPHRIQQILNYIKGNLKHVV

For CC(=O)Nc1ccc(C(=O)Nc2ccc(F)cc2N)cc1 [Compound 1, 4-acetamido-N-(2-amino-4-fluorophenyl)benzamide], the Tm shift (HDAC2) was 2.7 °C, the “more potent inhibitor of HDAC3 than compounds 3 and 4” value (HDAC3; IC50, 3 h preincubation) was 5-10 times and the IC50 (HDAC3; read-out: HDAC3 IC50 3 h Prein, Table 2, 3 h preincubation) was 68 nM. The IC50 (HDAC3; read-out: HDAC3 IC50 3 h Preinc, Table 2A, 3 h preincubation) was 68 nM, the IC50 (HDAC3; read-out: HDAC3 IC50 @3 hr, 3 hr preincubation) was 68 nM and the “FGF21 expression (FGF21/actin), dose response” value (FGF21) was “dose response increases in FGF21 expression”. For the same compound, the “FGF21 mRNA expression” value (FGF21; 20 μM, two hours) was “upregulates FGF21 mRNA expression”, the “suppression of cytokine-induced beta-cell apoptosis (caspase activity)” value (INS-1E cells [1]; IL-1β, IFN-γ, TNF-α, 48 hours, 5 μM compound) was “as effective at suppressing cyctokine-induced beta-cell apoptosis as CI-994” and the “suppression of caspase-3 activity, comparison of compounds” value (INS-1E cells [1]; cytokines, 0.1-10 μM, dose dependent) was “more effective at suppressing caspase-3 activity”. For the same compound, the “effect in fear conditioning assay” value [2] was “no effect was observed”, the IC50 (HDAC8) was greater than 33000 nM and the IC50 (HDAC6) was greater than 33000 nM. For the same compound, the glucose-stimulated insulin release (INS-1E cells [3]) was “restoring insulin release”, the insulin content (INS-1E cells [3]) was “restoring insulin content” and the “effect on growth and viability of human megakaryocyte progenitor cells” value [4] was “does not significantly inhibit cell growth; also recorded: no significant effect on growth and viability”.
